Measurements: patent US6350751B1, “Therapeutic agents” (Pfizer Inc., priority 1999, dated 2002)

Key:
[1] = stability of the salt (dosage form, drying and milling, drug substance); type: physicochemical
From the text: (§1) The problem of selecting a pharmaceutically acceptable salt form for 3-ethyl-5-[5-(4-ethylpiperazin-1-ylsulphonyl)-2-(2-methoxyethoxy) pyridin-3-yl]-2-(pyridin-2-yl)methyl-2,6-dihydro-7H-pyrazolo[4,3-d]pyrimidin-7-one has been solved by the surprising finding that the anhydrous para-toluene sulphonate salt of formula (I) meets the above criteria for a pharmaceutically acceptable salt. […] This is particularly surprising as initial predictions would indicate that the toslyate salt would form a hydrate, especially given the fact that the besylate salt and other salts investigated hydrated as predicted.

[2] = investigation of hydrate and polymorph formation of salts; type: physicochemical; conditions: for formation of crystalline hydrates: under a range of conditions
From the text: Hydrated salts can provide particular issues in processing, especially during for example the milling and/or drying stages. It has been disclosed that the tendency of organic molecules to hydrate can be predicted from their molecular structure, “Hydration in organic crystals: prediction from molecular structure”, Desiraju, Gautam R. Sch. Chem., Univ. Hyderabad, Hyderabad, 500 134, India. J. Chem. Soc., Chem. Commun. (1991), Issue 6, 426-8. CODEN: JCCCAT; ISSN: 0022-4936. (EN) CAN 114:237859. […] Several of the salts investigated form hydrates.
as §1
4-{6-Ethoxy-5-[3-ethyl-6,7-dihydro-7-oxo-2-(2-pyridylmethyl)-2H-pyrazolo[4,3-d]pyrimidin-5-yl]-3-pyridylsulfonyl}1-ethylpiperazine (100 g, 0.16 mol) was heated in 2-butanone/6.0% water (600 mL) to 50° C. yielding a pale yellow solution. The reaction mixture was heated to azetropically distil of 160 ml of solvent to remove water. The distilled solution was warmed to 60° C. and the acid solution of p-toluenesulfonic acid monohydrate (31.11 g, 0.16 mol) dissolved in 2-butanone (140 mL) was added over an hour. During the addition of the acid slow crystallisation was observed. The reaction mixture was slowly cooled from 60° C. to 0-5° C. over three hours, and stirred for a further hour, then filtered off the solid, washed with 2-butanone (200 mL) and dried under vacuum at 50° C. to afford the title compound (116 g, 93.7%) as a white solid. Mpt 240° C. (DMSOd6): 1.20 (6H, m), 2.23 (3H, st), 2.75 (2H, m), 2.97 (2H, q), 3.18 (4H, m), 3.35 (3H, s), 3.55 (2H, m), 3.68 (2H, m), 3.83 (2H, m), 4.59 (2H, m), 5.70 (2H, s), 7.08 (2H, d), 7.20 (1H, d), 7.34 (1H, m), 7.43 (2H, d), 7.80 (1H, m), 8.35 (1H, d), 8.70 (1H, d), 8.74 (1H, d). […] Mpt quoted +/−5° C. preferably +/−2° C. […] Additional experiments have shown that on re-slurrying in a mixture of methyl ethyl ketone and water these further polymorphs can be converted to the compound of Example 1.

SMILES | drug substance stability profile [1] | physical dosage form stability [1] | stability during drying and milling processes [1] | formation of crystalline hydrates [2] | further polymorphs detected via differential scanning calorimetry (DSC) ([2]; under certain conditions, convertible to Example 1 form by re-slurrying in methyl ethyl ketone and water) | number of anhydrous polymorphs [2]
CCc1c2nc(-c3cc(S(=O)(=O)N4CCN(CC)CC4)cnc3OCCOC)[nH]c(=O)c2nn1Cc1ccccn1 [Example 1] | desirable drug substance stability profile | good physical dosage form stability | demonstrates stability during drying and milling processes | does not appear to form crystalline hydrates | at least two further polymorphs | 
CCc1c2nc(-c3cc(S(=O)(=O)N4CCN(CC)CC4)cnc3OCCOC)[nH]c(=O)c2nn1Cc1ccccn1.O=S(=O)(O)c1ccccc1 [besylate salt, besylate salt of 3-ethyl-5-[5-(4-ethylpiperazin-1-ylsulphonyl)-2-(2-methoxyethoxy)pyridin-3-yl]-2-(pyridin-2-yl)methyl-2,6-dihydro-7H-pyrazolo [4,3-d]pyrimidin-7-one, reference compound] |  |  |  | a hydrated polymorph of the besylate salt is indeed formed |  | at least 5
